# Where two headings read alike, the source gives them in different places.
# Legend:
# H1975 cells [1] = experiment: MTS cell viability assay, H1975; format: cell-based, human; details: for IC50: MTS 72 hours
# Method: (§1) NSCLC cell lines (201T and H1975) were transfected with CS3D or CS3M (cyclic STAT3 mutant decoy) at concentrations ranging from 0 nM to 600 nM. Using MTS assays, cell viabilities were assessed 72 hours later. Three independent experiments were performed, using 24-well plates and 4 wells/concentration.
# (§2) To determine the concentration of CS3D required to inhibit cell viability, increasing concentrations of CS3D was transfected, and after 72 hours, MTS assays were used to assess cell viability. Data were normalized to cells treated with lipofectamine alone.
# (§3) Fluorescently-labeled CS3M and CS3D (with iFluor) were also produced using enzymatic ligation as described above and used to assess uptake efficiency. Transfections of the cyclic oligonucleotides were performed using Lipofectamine 2000 (Life Technologies) in opti-MEM media (Life Technologies) as follows: Cells were plated at […] confluency, and exposed to transfection media containing the respective circularized oligonucleotides for 24 hours at 37° C. Post-transfection, cell recovery was initiated in media containing 10% heat-inactivated fetal bovine serum.
# (§4) Dose-response experiments assessing the relative number of metabolically active viable cells were performed by transfecting cells with increasing concentrations of CS3D or CS3M, followed by performance of MTS assays. After 72 hours, 5 mg/ml of MTS reagent was added in the plates and incubated 37° C. for 20 minutes. The plates were then read at 490 nm in a Synergy microplate reader (BioTek, Winooski, Vermont) using Gen5 2.05 software. Data obtained following treatment with C3SD or CS3M were normalized to treatment with lipofectamine alone. […] To assess induction of apoptosis in response to CS3D, H1975 and 201T cells were transfected with 100 nM of CS3M or CS3D. After twenty four hours of transfection, cells were resuspended in annexin V-binding buffer, incubated with 5 μL of propidium iodide (BD Biosciences) and subjected to flow cytometric analysis, using a BD FACS Canto II Flow Cytometer.
# [2] = system: K-RAS G12D mutation in tumors; details: tumors 20 weeks post treatment, P>0.1
# [3] = system: c-Myc in H1975-derived tumors; experiment: c-Myc expression in H1975 xenograft tumors (Western blot); format: in vivo, nude mice
# Method: FIGS. 7C and 7D show c-Myc is suppressed after CS3D treatment in vivo. At the end of the treatments, tumors were harvested, whole cell lysates were prepared and RNA extracted for target gene analysis by Western blotting and RT-qPCR GAPDH protein was used as internal loading control for immunoblotting. CS3D treated tumors (C4, C5, and C6) from separate animals show a decrease in c-Myc expression level relative to the CS3M-treated group (C1, C2, and C3) in 201T. […] Data are shown as mean+/−SEM.
# To determine how CS3D blocks NSCLC growth, Western blot, qRT-PCR, and immunohistochemical analysis were performed to determine expression of c-Myc in residual tumors. These analyses identified a substantial downregulation of c-Myc protein (FIGS. 7C and 7D) and mRNA levels (FIG. 7E) in individual CS3D-treated tumors relative to CS3M-treated tumors in both 201T and H1975 xenografts. Some variability in protein levels among individual xenografts was observed (FIGS. 7C and 7D); the densitometry units for c-Myc protein after normalizing for GAPDH levels ranged from 0.11-0.16 units for CS3D-treated xenografts and 0.25-0.46 units for CS3M-treated tumors in H1975. Similarly, in 201T-derived tumors these measurements ranged from 0.015 to 0.51 units for CS3D and 0.28 to 0.97 units for CS3M. Even with this variability, the effect across the groups in both cell lines was significant (P<0.05 for H1975 and P<0.042 for 201T xenografts), with a mean decrease of 65% and 70%, respectively.
# [4] = system: c-Myc protein in H1975 cells; details: H1975, 3 hr after EGF
# Method: (§5) c-Myc is a STAT3 target gene that is known to be activated by EGF treatment. To investigate the effects of STAT3 blockade on c-Myc expression, cells were first treated with 10 ng/ml EGF for 1.5 hr (deemed the optimal time to observe increased c-Myc RNA), 24 hr after transfection of the cyclic oligonucleotides. RT-qPCR was used to assess differences in mRNA expression in STAT3 decoy-treated versus mutant decoy-treated cells (FIGS. 5A and 5B). […] Cells were treated 24 hours post-transfection with EGF (10 ng/ml) for 1.5 hr and mRNA was harvested from wild-type (A) and mutant EGFR T790M (B) NSCLC cell lines, and mRNA expression was assessed by RT-qPCR. Relative mRNA expression was normalized to GAPDH mRNA levels as an internal control. Statistical significance was determined as *P<0.05. […] Cells were treated 24 hours post-transfection with EGF (10 ng/ml) for 1.5 hr and mRNA was harvested from mutant EGFR T790M (B) NSCLC cell lines. […] Cells were is treated as in FIGS. 5A and 5B, and 3 hr after EGF treatment, lysates were collected from wild-type 201T (left) and mutant EGFR […] H1975 (right) NSCLC cell lines.
# [5] = system: STAT1 target genes (IKBKE, IFT2, IFT1, IRF7) and NFκB target genes; details: CS3D compared to CS3M treated cells
# Method: as §5
# A549 cells = system: A549 cells
# Method: as §1, §2
# as §3, with “Post-transfection, cell recovery was initiated in media containing 10% heat-inactivated fetal bovine serum.” left out
# Dose-response experiments assessing the relative number of metabolically active viable cells were performed by transfecting cells with increasing concentrations of CS3D or CS3M, followed by performance of MTS assays. […] The plates were then read at 490 nm in a Synergy microplate reader (BioTek, Winooski, Vermont) using Gen5 2.05 software. […]
# H1975 cells [6] = experiment: Soft agar colony forming assay, H1975; format: cell-based, human
# Excerpt: 1 hr after treatment with EGF.
# Following the transfection protocol described above, cells transfected with either CS3D or CS3M were detached from the plate using Trypsin-EDTA (Life Technologies) and seeded at a density of 2×10^4 cells/well (in a 6-well plate) in soft agar to determine the ability of cells to grow in an anchorage-independent setting. Sea Plaque Agarose (Lonza—Rockland, Maine) was used to prepare 0.8% base agarose layer and a 0.48% upper agarose layer containing the transfected cells. 1 ml of appropriate growth media was added into each well and incubated at growth conditions of 37° C. with 5% CO2. Media was replaced every 3-4 days and colony formation was monitored. After 15-20 days, the media was aspirated, and wells were incubated with crystal violet in 10% formalin for 1 h. Using a dissecting scope, colonies were photographed in a 6-well plate (with 4 quadrants/well) using ImageJ software analysis to automatically count colonies, using 35 pixels as a cut-off.
# NSCLC cell lines = details: each NSCLC cell line, regardless of EGFR or KRAS mutation status; one 4-hr transfection
# Method: as §1, §2
# as §4, with “After twenty four hours of transfection, cells were resuspended in annexin V-binding buffer, incubated with 5 μL of propidium iodide (BD Biosciences) and subjected to flow cytometric analysis, using a BD FACS Canto II Flow Cytometer.” left out
substance,measurement,setting,value
"CS3D (DNA GATTTACGGGAAATGCSCATTTCCC; cyclic decoy with two hexaethylene glycol linkers, further chemistry not given here)",inhibition in proliferation,"H1975 cells [1]; 0.3 μM transfection, H1975, relative to CS3M",50%
same,IC50,"H1975 cells [1]; H1975 (mutant EGFR), read-out: IC50",~300 nM
same,IC50,"H1975 cells [1]; H1975, EGFR mutant (L858R/T790M), KRAS WT, read-out: CS3D IC50",300 nM
same,"proportion of tumors positive for K-RAS mutation, CS3D vs CS3M",[2],no significant difference
same,c-Myc protein densitometry normalized for GAPDH,"[3]; H1975 xenograft tumors, range among individual tumors",0.11-0.16 units
same,mean decrease of c-Myc protein,"[3]; H1975 xenografts, CS3D vs CS3M",65%
same,reduction in c-Myc protein expression,[4],40%
same,mRNA expression of STAT1 and NFκB target genes,[5],no decrease in mRNA expression level
same,IC50,A549 cells,300 nM
same,disruption of anchorage-independent growth,"H1975 cells [6]; 300 nM single transfection, at 15 days, H1975, compared to CS3M",70%
same,reduction of colony formation in soft agar,"H1975 cells [6]; one transfection, H1975 (FIG. 4A)",65%
same,IC50,NSCLC cell lines,~300 nM

# Source: US11932850B2, “Cancer chemoprevention with STAT3 blockers” (Jill M. Siegfried, LLC, priority 2018, dated 2024)
